Experimental data from patent US10059636B2, “Pesticide product including polyanionic polymers” (Verdesian Life Sciences, LLC, priority 2013, dated 2018).

System: cotton
Assay: Phosphorous fixation field test with DAP on cotton
Format: in vivo
Settings: for % by weight Phosphorous in Tissue: cotton tissue prior to first bloom
Source text: In a field test, two rates of phosphorous as diammonium phosphate (DAP) were broadcast-applied as a pre-plant fertilizer to a cotton field, namely 65 lbs of DAP per acre and 130 lbs of DAP per acre. The tests were two replications each of an unfertilized control, a DAP-only control, and DAP mixed with 0.25% w/w of a Class I polymer formulation. The formulation included 40% w/w of a partial zinc/sodium salt of T5 polymer, 5% w/w zinc, and the balance water, pH about 3,
Tissue tests were taken prior to first bloom from each plot, and the percent of phosphorous in the plant tissue was measured. After harvesting, lint yields were measured.

**Q.** How did the “Lint Yield” value (65 lbs of DAP per acre) turn out when `N.N.O=P(O)(O)O` [DAP, diammonium phosphate] was run?
**A.** Its value is 712 lbs/acre.

**Q.** What about the “% by weight Phosphorous in Tissue” value (65 lbs of DAP per acre) of the same compound?
**A.** Its value is 0.41 % by weight.

**Q.** What about the “Lint Yield” value (130 lbs of DAP per acre) of the same compound?
**A.** The value was 781 lbs/acre.

**Q.** What about the “% by weight Phosphorous in Tissue” value (130 lbs of DAP per acre) of the same compound?
**A.** Its value is 0.41 % by weight.
